≈ marks a conversion by molar mass, not a printed value.
Tests used:
Adenosine receptor A1 [1] = target: T1, Adenosine receptor A1 (Homo sapiens, UniProt P30542); experiment: Displacement of [3H]DPCPX from human adenosine A1 receptor expressed in HEK293 cells; format: cell-based
T1 sequence (P30542 whole entry): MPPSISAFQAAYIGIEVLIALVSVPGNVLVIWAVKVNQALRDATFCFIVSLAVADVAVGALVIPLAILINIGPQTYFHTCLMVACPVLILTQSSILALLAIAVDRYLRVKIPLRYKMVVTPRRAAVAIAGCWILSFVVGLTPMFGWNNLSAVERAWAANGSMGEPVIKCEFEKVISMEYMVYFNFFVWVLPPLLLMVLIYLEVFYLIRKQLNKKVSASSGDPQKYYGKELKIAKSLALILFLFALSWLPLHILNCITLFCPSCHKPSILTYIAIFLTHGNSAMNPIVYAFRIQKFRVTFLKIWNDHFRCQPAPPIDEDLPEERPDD

Adenosine receptor A2a [2] = target: T2, Adenosine receptor A2a (Homo sapiens, UniProt P29274); experiment: Displacement of [3H]ZM-241385 from human adenosine A2A receptor expressed in HEK293 cells; format: cell-based
Cytochrome P450 3A4 = Cytochrome P450 3A4 (Homo sapiens, UniProt P08684); experiment: Inhibition of CYP3A4; format: ADME
Homo sapiens = species on record: Homo sapiens; experiment: Selectivity of Ki for human adenosine A2A receptor over Ki for human adenosine A1 receptor
Adenosine receptor A2a [3] = target: T2, Adenosine receptor A2a; experiment: Binding affinity at adenosine A2A receptor
Adenosine receptor A1 [4] = target: T1, Adenosine receptor A1; experiment: Binding affinity at adenosine A1 receptor
[5] = target: Voltage-gated inwardly rectifying potassium channel KCNH2 (Homo sapiens, UniProt Q12809); experiment: Binding affinity at human ERG
Adenosine receptor A2a [6] = target: Adenosine receptor A2a (Rattus norvegicus, UniProt P30543); experiment: Inhibition of rat adenosine A2A receptor
Rattus norvegicus = experiment: Inhibition of haloperidol-induced catalepsy in orally dosed rat; format: functional; details: po, read-out: MED
[7] = Plasma clearance in rat; format: ADME, organism-based
Cytochrome P450 2D6 = Cytochrome P450 2D6 (Homo sapiens, UniProt P10635); experiment: Inhibition of CYP2D6; format: ADME
[8] = Oral bioavailability in rat; format: ADME, organism-based; details: in vivo
[9] = Volume of distribution in rat; format: ADME, organism-based; details: in vivo
[10] = Drug level in rat brain after 4 hrs; format: ADME, tissue-based; details: read-out: Drug uptake
[11] = Half life in rat; format: ADME, organism-based; details: in vivo
[12] = Solubility at pH 5; format: physicochemical; details: buffer

T2 sequence (P29274 whole entry): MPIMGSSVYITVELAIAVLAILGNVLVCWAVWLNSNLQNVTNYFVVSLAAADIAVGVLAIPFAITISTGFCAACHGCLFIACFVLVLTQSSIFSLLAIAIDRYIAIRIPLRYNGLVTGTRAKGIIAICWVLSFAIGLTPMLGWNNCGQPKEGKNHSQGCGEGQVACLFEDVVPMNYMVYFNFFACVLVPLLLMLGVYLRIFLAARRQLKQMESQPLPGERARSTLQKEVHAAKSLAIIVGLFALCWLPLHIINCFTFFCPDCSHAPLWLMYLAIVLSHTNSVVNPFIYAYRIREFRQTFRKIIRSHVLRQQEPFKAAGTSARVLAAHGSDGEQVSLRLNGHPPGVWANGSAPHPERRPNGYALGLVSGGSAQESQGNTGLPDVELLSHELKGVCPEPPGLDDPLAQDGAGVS
Cytochrome P450 3A4, sequence (P08684 whole entry): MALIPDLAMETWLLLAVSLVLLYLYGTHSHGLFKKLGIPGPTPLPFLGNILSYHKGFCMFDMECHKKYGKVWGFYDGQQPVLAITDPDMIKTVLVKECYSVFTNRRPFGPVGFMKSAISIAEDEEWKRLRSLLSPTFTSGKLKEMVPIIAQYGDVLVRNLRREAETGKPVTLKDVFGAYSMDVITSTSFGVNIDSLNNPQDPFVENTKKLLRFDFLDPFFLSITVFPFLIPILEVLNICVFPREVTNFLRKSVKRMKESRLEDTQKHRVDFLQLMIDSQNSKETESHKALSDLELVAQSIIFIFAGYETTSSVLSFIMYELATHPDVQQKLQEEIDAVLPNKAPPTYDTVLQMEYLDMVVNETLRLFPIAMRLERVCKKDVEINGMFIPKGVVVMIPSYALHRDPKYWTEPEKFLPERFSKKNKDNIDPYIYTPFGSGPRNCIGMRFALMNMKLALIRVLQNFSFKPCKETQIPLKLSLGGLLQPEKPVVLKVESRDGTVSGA
Cytochrome P450 2D6, sequence (P10635 whole entry): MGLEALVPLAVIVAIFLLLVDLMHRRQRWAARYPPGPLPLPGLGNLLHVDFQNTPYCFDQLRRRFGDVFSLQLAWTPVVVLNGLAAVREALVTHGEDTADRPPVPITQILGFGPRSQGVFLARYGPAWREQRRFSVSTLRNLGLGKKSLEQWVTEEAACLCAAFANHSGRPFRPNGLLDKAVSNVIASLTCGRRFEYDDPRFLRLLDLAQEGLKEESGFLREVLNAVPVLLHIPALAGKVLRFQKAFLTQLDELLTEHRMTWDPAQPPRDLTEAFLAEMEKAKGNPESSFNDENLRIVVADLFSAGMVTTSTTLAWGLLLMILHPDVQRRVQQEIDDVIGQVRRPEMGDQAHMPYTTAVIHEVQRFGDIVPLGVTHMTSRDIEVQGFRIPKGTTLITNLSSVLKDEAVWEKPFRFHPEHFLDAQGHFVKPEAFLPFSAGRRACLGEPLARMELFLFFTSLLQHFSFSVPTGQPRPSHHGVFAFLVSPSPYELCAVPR
Adenosine receptor A2a (Rattus norvegicus, UniProt P30543), sequence (P30543 whole entry): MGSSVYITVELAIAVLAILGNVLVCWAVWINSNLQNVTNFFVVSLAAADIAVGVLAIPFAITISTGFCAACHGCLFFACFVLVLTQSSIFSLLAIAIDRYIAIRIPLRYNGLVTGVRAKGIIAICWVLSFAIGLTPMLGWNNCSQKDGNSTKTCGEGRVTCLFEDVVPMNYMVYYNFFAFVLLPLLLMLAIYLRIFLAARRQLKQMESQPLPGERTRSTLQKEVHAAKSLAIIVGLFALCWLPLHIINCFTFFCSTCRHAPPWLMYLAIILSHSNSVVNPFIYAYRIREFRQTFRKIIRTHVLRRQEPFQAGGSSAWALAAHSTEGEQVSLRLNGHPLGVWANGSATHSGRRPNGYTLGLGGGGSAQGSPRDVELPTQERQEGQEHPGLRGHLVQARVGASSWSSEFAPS
Voltage-gated inwardly rectifying potassium channel KCNH2, sequence (Q12809 whole entry): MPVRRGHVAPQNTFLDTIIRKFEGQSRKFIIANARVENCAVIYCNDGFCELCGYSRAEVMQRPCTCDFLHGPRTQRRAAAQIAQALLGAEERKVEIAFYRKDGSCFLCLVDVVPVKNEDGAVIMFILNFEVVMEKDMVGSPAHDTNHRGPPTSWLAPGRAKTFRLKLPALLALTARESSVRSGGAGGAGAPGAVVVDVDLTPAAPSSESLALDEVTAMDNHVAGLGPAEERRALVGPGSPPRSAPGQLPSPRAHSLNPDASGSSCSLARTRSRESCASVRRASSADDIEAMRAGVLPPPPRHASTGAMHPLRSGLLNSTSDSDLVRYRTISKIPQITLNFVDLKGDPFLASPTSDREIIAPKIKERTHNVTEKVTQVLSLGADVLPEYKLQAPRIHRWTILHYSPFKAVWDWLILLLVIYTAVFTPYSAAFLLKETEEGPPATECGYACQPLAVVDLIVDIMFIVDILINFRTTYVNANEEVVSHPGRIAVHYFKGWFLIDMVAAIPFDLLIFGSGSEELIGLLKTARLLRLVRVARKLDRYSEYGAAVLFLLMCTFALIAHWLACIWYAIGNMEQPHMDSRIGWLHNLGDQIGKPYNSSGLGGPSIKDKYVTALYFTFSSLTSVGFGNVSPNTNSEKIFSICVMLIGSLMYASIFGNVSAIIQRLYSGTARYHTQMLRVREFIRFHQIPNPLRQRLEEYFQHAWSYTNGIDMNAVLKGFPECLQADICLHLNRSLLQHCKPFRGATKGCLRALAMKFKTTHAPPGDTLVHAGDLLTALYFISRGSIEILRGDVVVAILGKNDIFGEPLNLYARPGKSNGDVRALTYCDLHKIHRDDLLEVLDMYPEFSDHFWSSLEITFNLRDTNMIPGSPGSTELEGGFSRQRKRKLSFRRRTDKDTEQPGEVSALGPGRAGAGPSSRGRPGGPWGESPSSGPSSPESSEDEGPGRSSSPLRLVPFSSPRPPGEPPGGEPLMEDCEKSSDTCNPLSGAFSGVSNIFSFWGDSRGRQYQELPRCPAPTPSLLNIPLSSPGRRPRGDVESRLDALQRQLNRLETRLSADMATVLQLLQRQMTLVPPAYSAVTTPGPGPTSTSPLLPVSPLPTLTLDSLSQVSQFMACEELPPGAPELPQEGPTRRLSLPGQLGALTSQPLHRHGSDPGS

Row | Compound | Ki (Adenosine receptor A1 [1]) | Ki (Adenosine receptor A2a [2]) | other results
1 | N#Cc1cccc(OCC(=O)Nc2cc(-c3nccs3)nc(-c3ccccn3)n2)c1 | 87 nM | 1.8 nM | –
2 | COc1cc(CN(C)C)ccc1OCC(=O)Nc1cc(-n2nc(C)cc2C)nc(-c2ccc(C)o2)n1 | 100 nM | 0.2 nM | –
3 | COc1cccc(CN(C)C)c1OCC(=O)Nc1cc(-n2nc(C)cc2C)nc(-c2ccc(C)o2)n1 | 1400 nM | 5.7 nM | –
4 | COc1ccc(OCC(=O)Nc2cc(-n3nc(C)cc3C)nc(-c3ccc(C)o3)n2)c(CN(C)C)c1 | 200 nM | 0.9 nM | IC50 (Cytochrome P450 3A4): 1600 nM
5 | Cc1cc(C)n(-c2cc(NC(=O)COc3cc(F)cc(CN4CCOCC4)c3)nc(-c3ccc(C)o3)n2)n1 | 480 nM | 1.4 nM | –
6 | Cc1ccc(-c2nc(NC(=O)COc3cccc(Cl)c3)cc(-c3nccs3)n2)o1 | 1500 nM | 14 nM | –
7 | Cc1cc(C)n(-c2cc(NC(=O)COc3cccc(CN)c3)nc(-c3ccc(C)o3)n2)n1 | 73 nM | 0.7 nM | Ratio Ki (Homo sapiens): 100; Ki (Adenosine receptor A2a [3]): 0.7 nM
8 | Cc1ccc(-c2nc(NC(=O)CCc3ccccc3F)cc(-c3nccs3)n2)o1 | – | – | Ratio Ki (Homo sapiens): 26; Ki (Adenosine receptor A1 [4]): 410 nM; Ki (Adenosine receptor A2a [3]): 16 nM
9 | Cc1ccc(-c2nc(NC(=O)COc3cccc(C#N)c3)cc(-c3nccs3)n2)o1 | 4300 nM | 6.8 nM | –
10 | Cc1cc(C)n(-c2cc(NC(=O)COc3ccccc3CCN3CCOCC3)nc(-c3ccc(C)o3)n2)n1 | 1200 nM | 1.2 nM | Ki [5]: 180 nM
11 | Cc1cc(C)n(-c2cc(NC(=O)COc3cccc(CN(C)C)c3)nc(-c3ccc(C)o3)n2)n1 | 60 nM | 0.4 nM | Ki (Adenosine receptor A2a [6]): 9.4 nM; minimal effective dose (Rattus norvegicus): 10 mg/kg; clearance [7]: 330 mL/min/kg; IC50 (Cytochrome P450 2D6): > 6000 nM; bioavailability [8]: 19%; Vd [9]: 20 L/kg; concentration at 4 h [10]: 360 ng/g; IC50 (Cytochrome P450 3A4): > 6000 nM; half-life [11]: 48 min; solubility [12]: 210 µg/mL (≈ 456 µM)
12 | Cc1cc(C)n(-c2cc(NC(=O)COc3ccccc3CN(C)C)nc(-c3ccc(C)o3)n2)n1 | 270 nM | 1 nM | –
13 | Cc1ccc(-c2nc(NC(=O)COc3ccccc3)cc(-c3nccs3)n2)o1 | 1100 nM | 7.4 nM | –
14 | Cc1cc(C)nc(OCC(=O)Nc2cc(-n3nc(C)cc3C)nc(-c3ccc(C)o3)n2)n1 | 95 nM | 3.7 nM | –
15 | Cc1cc(C)n(-c2cc(NC(=O)COc3cccc(CCN4CCOCC4)c3)nc(-c3ccc(C)o3)n2)n1 | 540 nM | 2.3 nM | –
16 | Cc1cc(OCC(=O)Nc2cc(-n3nc(C)cc3C)nc(-c3ccc(C)o3)n2)cc(C)n1 | 740 nM | 0.7 nM | IC50 (Cytochrome P450 2D6): 50 nM; IC50 (Cytochrome P450 3A4): 1100 nM
17 | Cc1cc(C)n(-c2cc(NC(=O)COc3ccc(CN(C)C)cc3)nc(-c3ccc(C)o3)n2)n1 | 120 nM | 0.3 nM | –

Row | Compound | Ki (Adenosine receptor A1 [1]) | Ki (Adenosine receptor A2a [2]) | other results
18 | Cc1cc(C)n(-c2cc(NC(=O)COc3cccc(CN4CCOCC4)c3)nc(-c3ccc(C)o3)n2)n1 | 600 nM | 1.2 nM | Ratio Ki (Homo sapiens): 500
19 | CCNCc1cccc(OCC(=O)Nc2cc(-n3nc(C)cc3C)nc(-c3ccc(C)o3)n2)c1 | 68 nM | 0.3 nM | Ratio Ki (Homo sapiens): 100; Ki (Adenosine receptor A2a [3]): 0.3 nM
20 | Cc1ccc(OCC(=O)Nc2cc(-n3nc(C)cc3C)nc(-c3ccc(C)o3)n2)c(CN(C)C)c1 | 270 nM | 1 nM | –
21 | Cc1cc(C)n(-c2cc(NC(=O)COc3cccc(C#N)c3)nc(-c3ccc(C)o3)n2)n1 | 25000 nM | > 10000 nM | –
22 | Cc1cc(C)n(-c2cc(NC(=O)COc3cc(F)cc(CN4CCCC4)c3)nc(-c3ccc(C)o3)n2)n1 | 120 nM | 0.5 nM | –
23 | Cc1ccc(-c2nc(NC(=O)COc3cccc(F)c3)cc(-c3nccs3)n2)o1 | 2200 nM | 11 nM | –
24 | Cc1cc(C)n(-c2cc(NC(=O)COc3cccc(F)c3)nc(-c3ccc(C)o3)n2)n1 | 9700 nM | 3.7 nM | Ratio Ki (Homo sapiens): 2600; solubility [12]: 80 µg/mL (≈ 190 µM)
25 | Cc1ccc(-c2nc(NC(=O)COc3ccccc3F)cc(-c3nccs3)n2)o1 | 650 nM | 7.5 nM | Ratio Ki (Homo sapiens): 87
26 | Cc1cc(C)n(-c2cc(NC(=O)COc3cccc(CCN(C)C)c3)nc(-c3ccc(C)o3)n2)n1 | 78 nM | 0.5 nM | –
27 | Cc1ccc(-c2nc(NC(=O)COc3ccc(F)cc3)cc(-c3nccs3)n2)o1 | 1300 nM | > 10000 nM | –
28 | COc1cc(OCC(=O)Nc2cc(-n3nc(C)cc3C)nc(-c3ccc(C)o3)n2)ccc1CN(C)C | 150 nM | 0.3 nM | –
29 | Cc1cc(C)n(-c2cc(NC(=O)COc3cc(F)cc(CN(C)C)c3)nc(-c3ccc(C)o3)n2)n1 | 140 nM | 0.5 nM | –
30 | Cc1ccc(OCC(=O)Nc2cc(-c3nccs3)nc(-c3ccc(C)o3)n2)cc1 | 2100 nM | 36 nM | –
31 | O=C(COc1cccc(F)c1)Nc1cc(-c2nccs2)nc(-c2ccccn2)n1 | 180 nM | 3.6 nM | –
32 | CCN(C)Cc1cccc(OCC(=O)Nc2cc(-n3nc(C)cc3C)nc(-c3ccc(C)o3)n2)c1 | 68 nM | 0.3 nM | Ratio Ki (Homo sapiens): 100; Ki (Adenosine receptor A2a [3]): 0.3 nM
33 | CC(=O)Nc1cc(-n2cccn2)nc(-c2ccco2)n1 | – | – | Ratio Ki (Homo sapiens): 17; Ki (Adenosine receptor A2a [3]): 0.6 nM

From ChEMBL document CHEMBL1141544, “Synthesis of N-pyrimidinyl-2-phenoxyacetamides as adenosine A2A receptor antagonists” (Bioorg Med Chem Lett, 2008)
